These results are taken from US20070276024A1, “Methods for Treating Diseases and Conditions with Inverse Agonists and for Screening for Agents Acting as Inverse Agonists” (Inverseon , Inc., priority 2003, published 2007).

Entries after “also recorded” stand apart in the source; their conditions may differ. Where two headings read alike, the source gives them in different places.

Assay [1] deals with asthmatic mice. As to conditions: Callaerts-Vegh et al. 2004, cited from earlier work.
The target in assay [2] is T1, β2-adrenergic receptor (Mus musculus, UniProt P18762). Description: Immunohistochemistry of β2-adrenergic receptor levels in lungs. Format: in vivo, mice. Details: from tissue; host or cells: fixed lung sections of mice. The note with it: chronic treatment, versus untreated animals. The procedure:
The mice were sacrificed and the lungs excised. Then the lungs were fixed in 4% paraformaldehyde (45 min, 0° C.). After fixation, lungs were washed in PBS (60 min) and placed in increasing concentrations of sucrose (10% sucrose/5% glycine in PBS for 30 min; 20% sucrose/10% glycine in PBS for 30 min; 30% sucrose/25% glycine in PBS for 12 h at 4° C.). Lungs were embedded in OCT and 12-μm sections cut with a Tissue-Tek II cryostat. The sections were air dried and fixed with 4% paraformaldehyde for 15 min. After 3 washes in PBS, the slides were blocked with 5% milk in PBS for 1 h, and then incubated overnight with anti-β2-adrenergic receptor antibody (1:200, Santa Cruz Biotechnology) in blocking solution. Slides were washed in PBS and incubated with secondary antibody (1:200, Cy3 goat anti-rabbit, 16 h at 4° C.). […] After washing with PBS, coverslips were mounted and viewed by epifluorescent microscopy.

Assay [3] concerns sensitized and allergen-challenged mice. Nature of the assay: Aminophylline on acute airway effects of nadolol. Type of assay: in vivo. The procedure:
Mice were sensitized to the allergen ovalbumin as described in Example 1.
At time point 1 (time=−10 min) baseline airway resistance of the mice was determined. At time point 2 (time=−5 min) methacholine was infused into mice to reach their EC70.

The subject of assay [4] is asthmatic mice. Nature of the assay: Airway resistance (Raw) response to methacholine in murine model of asthma. Type of assay: in vivo, Balb/cJ mice. On the procedure: Balb/cJ mice aged 6 weeks (Jackson Animal Laboratory, Bar Harbor, Maine) were housed under specific pathogen-free conditions and fed a chicken ovalbumin-free diet. The Animal Research Ethics Boards of both the University of Houston and the Baylor College of Medicine approved all experiments reported here. […] Mice were sensitized with subcutaneous injection of 25 μg of ovalbumin adsorbed to aluminum hydroxide on protocol days 2, 9, and 16. Subsequently, mice were given 50 μL of saline solution containing 25 μg of ovalbumin intranasally, on a daily basis, from protocol days 23 through 27. A group of ovalbumin-sensitized saline-challenged mice serves as controls for systemic sensitization and respiratory challenges with ovalbumin. Prior to intranasal administrations, mice were sedated with halothane vapor.
To examine the effects of duration of β-adrenergic ligand therapy on the phenotype of the murine model of asthma, the experimental drugs were administered either acutely or chronically to different groups of asthmatic mice.
Asthmatic mice on acute therapy were given a single intravenous bolus infusion of either β-adrenergic drug or normal saline on protocol day 28, 15 minutes before airway responsiveness to methacholine was determined. […] […] […] These concentrations were chosen based on those producing therapeutic effects in mice in previously published studies. The non-asthmatic mice were fed normal chow.
On protocol day 28, mice were anesthetized, tracheotomized, and connected to a computer-controlled small animal ventilator (Flexivent, Scientific Respiratory Equipment, Inc., Montreal, Canada). Airway resistance (Raw) was measured using the forced oscillation technique. The cellular composition of bronchoalveolar lavage fluid (BALF) was also determined.
To induce airway constriction, a solution containing 150 μg/mL of acetyl-α-methylcholine chloride (methacholine) (Sigma Chemical, St. Louis, Mo.) was infused intravenously at constant rates using a syringe infusion pump (Raze Scientific Instruments, Stanford, Conn.). […] Each methacholine dose was administered for 3 to 5 minutes, during which data were sampled at 1-minute intervals and then averaged.
The complex input impedance of the respiratory system was computed and the value of the real part of respiratory system impedance at 19.75 Hz was taken to reflect the magnitude of airway resistance (Raw). To examine the degree of airway responsiveness of each animal, the values for Raw as a function of methacholine doses were plotted. The largest value for Raw achieved in response to methacholine stimulation was referred to as Rawpeak. For mice that achieved a plateau in the methacholine dose-Raw response curve, the ED50 was calculated by linear interpolation using the GraphPad Prism4 (GraphPad Software, Inc.). […] The Bonferroni test was used to examine the statistical differences between experimental groups. The effects of acute drug treatments on baseline respiratory system mechanics were assessed using a two-tailed paired t-test. A value of P<0.05 was considered significant.
For these experiments, salbutamol was used for chronic administration at 0.5 mg/kg/day with a minipump and for acute administration at 0.15 mg/kg by i.v. bolus 15 minutes prior to challenge. Alprenolol was used at a high dose of 7200 ppm in chow or at a low dose of 720 ppm in chow. Carvedilol was used at a high dose of 2400 ppm in chow or at a low dose of 720 ppm in chow.
The airway resistance (Raw) is plotted as cm H2O ml^−1 s.

Assay [5] deals with T1, β2-adrenergic receptor. Format: in vivo, mice. On the procedure:
β2-adrenergic receptor numbers were measured in asthmatic mice as follows. […] Mice were sacrificed and lung membranes were isolated as follows. Frozen lung tissue was homogenized in an ice-cold buffer containing 0.32 M sucrose and 25 mM Tris (pH 7.4) using a polytron (Pro 200, Pro Scientific, Inc.). The homogenate was centrifuged at 1000×g for 10 min at 4° C. The resulting supernatant was centrifuged at 40,000×g for 20 min at 4° C. The pellet was suspended in an ice-cold 25 mM Tris-HCl buffer (pH 7.4) and centrifuged at 40,000'g for 20 min at 4° C. The final pellet was suspended in 200 μL of 25 mM Tris-HCl (pH 7.4); membrane protein concentration was determined by BCA protein assay kit. […] The incubation was done at 37° C. for 2 h and terminated by rapid vacuum filtration through glass fiber filters. The filters were washed three times with 250 μL of cold wash buffer (25 mM Tris-HCl, pH 7.4) and the radioactivity determined in a counter. […] Receptor densities are expressed as femtomoles of sites per milligram of protein. Bmax is determined by nonlinear regression of the saturation binding curves.

A further assay has as its system Phospholipase C (PLC-β1). Nature of the assay: Ratio of phospholipase C to actin in cultured tracheal smooth muscle cells (immunoblot). The note with it: cells from asthmatic mice, chronic high dose treatment. Format: cell-based. An excerpt: Cultured tracheal smooth muscle cells were obtained from mice exposed to the following treatments: NS/NC=nonasthmatic, non-challenged mice; S/C=asthmatic mice; Sal.Ac=asthmatic mice, acute salbutamol treatment; Sal.Ch=asthmatic mice, chronic salbutamol treatment; Nad.Ac=asthmatic mice, acute nadolol high dose treatment; and Nad.Ch=asthmatic mice, chronic nadolol high dose treatment.
After airway function experiments, the trachea were surgically removed from anesthetized mice that had been treated with drugs or vehicle. The trachea was minced and the cells plated and grown in culture. The smooth muscle cells grow faster and take over the culture dish. The cells were grown in medium which contained the drugs used in the treatment or vehicle controls. Phospholipase C (PLC-β1) was determined by immunoblotting with an antibody specific for the enzyme. Actin was used as a loading control and the amount of PLC-β1 was expressed as a ratio to actin.
The phospholipase C protein level was measured in these cultured cells and compared with the level of the structural protein actin as a baseline. The enzyme phospholipase C plays a key role in the pathway leading to asthmatic symptoms, as it cleaves a phosphodiester bond in membrane phospholipids, resulting in the formation of a 1,2-diglyceride. […]

T1 sequence (P18762 whole entry): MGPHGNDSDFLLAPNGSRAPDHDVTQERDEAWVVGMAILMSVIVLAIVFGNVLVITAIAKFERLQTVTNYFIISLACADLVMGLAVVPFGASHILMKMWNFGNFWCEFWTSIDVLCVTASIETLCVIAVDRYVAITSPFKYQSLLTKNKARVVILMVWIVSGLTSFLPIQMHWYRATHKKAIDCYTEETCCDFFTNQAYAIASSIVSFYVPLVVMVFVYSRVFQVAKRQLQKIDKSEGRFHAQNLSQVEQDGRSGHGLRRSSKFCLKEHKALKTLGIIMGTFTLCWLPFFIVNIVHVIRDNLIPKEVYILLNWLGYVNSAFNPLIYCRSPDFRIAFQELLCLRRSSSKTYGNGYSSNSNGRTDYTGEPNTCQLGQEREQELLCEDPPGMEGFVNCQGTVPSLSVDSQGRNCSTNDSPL

For the compound `CC(C)(C)NCC(O)COc1cccc2c1CC(O)C(O)C2` (centres unmarked) [Nadolol, nadolol], the airway hyperresponsiveness entry with asthmatic mice [1] (administered acutely) is “worsens airway hyperresponsiveness”; in the assay with asthmatic mice [1] (administered chronically), “prevents airway hyperresponsiveness”. Also, the “labeling with anti-β2-adrenergic receptor antibodies in lungs” value on β2-adrenergic receptor [2] is “considerably more intense; also recorded: increase in β-adrenergic receptor density”. Also, in assay [3] (pretreated 0.72 mg/kg i.p.), the baseline airway resistance entry is listed as “same baseline airway resistance”. The “airway resistance upon methacholine challenge” value in assay [3] (pretreated 0.72 mg/kg i.p. 15 minutes prior to methacholine, methacholine infused to EC70) is approximately 4.5 units. The “Decreased Raw” value is listed as “no” in the assay on asthmatic mice [4] (15 minutes of administration), “yes” in the assay on asthmatic mice [4] (2 days of administration) and “yes” with asthmatic mice [4] (28 days of administration). For the same compound, the “airway resistance (Raw)” value with asthmatic mice [4] (asthmatic mice, 1 ppm in chow) was “identical to the untreated mice”. In addition, the “airway responsiveness to methacholine provocation (airway resistance, Raw)” value in the assay with asthmatic mice [4] (asthmatic mice, acute: single intravenous bolus 15 minutes before methacholine) is “enhanced the airway responsiveness”; in the assay on asthmatic mice [4] (asthmatic mice, chronic administration, 28 days (in chow; salbutamol by osmotic minipump)), “produced a decrease in airway responsiveness; also recorded: providing protection from airway hyperresponsiveness; also recorded: reduced the responsiveness”. Moreover, the “Increased β2AR density” value at β2-adrenergic receptor [5] (15 minutes of administration) is “no”; on β2-adrenergic receptor [5] (2 days of administration), “yes”; at β2-adrenergic receptor [5] (2 days of administration, listed as nadolol) it was “increase in receptor density”; at β2-adrenergic receptor [5] (28 days of administration), “yes”; on β2-adrenergic receptor [5] (28 days of administration, listed as nadolol), “increase in receptor density”. The “increase of the level of β2-adrenergic receptors over the non-treated mice” value at β2-adrenergic receptor [5] (chronic administration) was “nearly eightfold increase”. At β2-adrenergic receptor [5] (lung membranes, drug treatment 15 Minutes, mean±SEM, n=3-5), the “Bmax (receptor density)” value is reported as 181.9 ± 48.28 femtomoles of sites per milligram of protein. The “βmax (receptor density)” value on β2-adrenergic receptor [5] (lung membranes, drug treatment 28 Days, mean±SEM, n=3-5) was 785.5 ± 154.8 femtomoles of sites per milligram of protein. The “phospholipase C (ratio of PLC-β1 to actin)” value with Phospholipase C (PLC-β1) is on record as “significantly decreases the activity of phospholipase C”.
